The source of these data is patent US20240327334A1, “Covalent Inhibitors As Antiviral Agents” (Enanta Pharmaceuticals, Inc., priority 2022, published 2024).

The target of experiment [1] is SARS-CoV-2 Papain-like (PLpro) protease (Severe acute respiratory syndrome coronavirus 2, UniProt P0DTD1). The experiment can be described thus: SARS-CoV-2 Papain-like (PLpro) protease biochemical enzyme inhibition assay (ubiquitin-fluorophore substrate, Ub-R110). The settings on record: Ub-R110 substrate; run in duplicate; read-out: PLpro IC50.
In experiment [2] the test system is SARS-CoV-2 replicon. Put plainly: microbe, parasite or virus in culture. The format is cell-based. Conditions: Severe acute respiratory syndrome coronavirus 2, Huh-7.

The term IC50 denotes the concentration that gives 50% inhibition. One may read the EC50 as the concentration needed to bring the measured effect to its halfway point. A lower EC50 goes with greater potency. In the case of `COc1cc(-c2cnn(C3CC3)c2)cc(C2(NC(=O)c3ccccc3CNC(=O)C(=O)NCC#Cc3nccs3)CC2)c1` [Example 246], the IC50 in experiment [1] is less than 100 nM. The molecule further gave an EC50 in experiment [2] of less than 1000 nM.
In the same order, the values of `COc1ccc(C2(NC(=O)c3ccccc3CNC(=O)C(=O)NCC#Cc3nccs3)CC2)cc1-c1cnn(C2CC2)c1` [Example 247] are less than 100 nM and less than 1000 nM.
Regarding `O=C(NCC#Cc1ncc(F)cn1)C(=O)NCc1ccccc1C(=O)NC1(c2cc(F)cc(-c3cnn(C4CC4)c3)c2)CC1` [Example 248], the IC50 in experiment [1] was less than 100 nM. Moreover, the EC50 in experiment [2] is less than 1000 nM.
Consider `O=C(NCC#Cc1ncc(F)s1)C(=O)NCc1ccccc1C(=O)NC1(c2cc(F)cc(-c3cnn(C4CC4)c3)c2)CC1` [Example 249], for which the IC50 in experiment [1] is less than 100 nM. Moreover, in experiment [2], the EC50 was less than 1000 nM.
On the same counts, the results for `CN(C)CCn1cc(-c2cc(F)cc(C3(NC(=O)c4ccccc4CNC(=O)C(=O)NCC#Cc4ccccn4)CC3)c2)cn1` [Example 250] are less than 100 nM and less than 1000 nM.
With `CN(C)CCn1cc(-c2cc(F)cc(C3(NC(=O)c4ccccc4CNC(=O)C(=O)NCC#Cc4nccs4)CC3)c2)cn1` [Example 251], in experiment [1], the IC50 is less than 100 nM. Besides, the EC50 in experiment [2] is less than 1000 nM.
On the same counts, the results for `O=C(NCC#Cc1ccccn1)C(=O)NCc1ccccc1C(=O)NC1(c2cc(F)cc(-c3cnn(C4CC4)c3)c2)CC1` [Example 252] are less than 100 nM and less than 1000 nM.
Turning to `O=C(NCC#Cc1nccs1)C(=O)NCc1ccccc1C(=O)NC1(c2cc(F)cc(-c3cnn(C4COC4)c3)c2)CC1` [Example 253], the IC50 in experiment [1] is less than 100 nM. In experiment [2], the EC50 is less than 1000 nM.
In the same order, the values of `C[C@@H](C#Cc1nccs1)NC(=O)C(=O)NCc1ccccc1C(=O)NC1(c2cc(F)cc(-c3cnn(C4COC4)c3)c2)CC1` [Example 254] are less than 100 nM and less than 1000 nM.
With `CN1CCC(n2cc(-c3cc(F)cc(C4(NC(=O)c5ccccc5CNC(=O)C(=O)NCC#Cc5nccs5)CC4)c3)cn2)CC1` [Example 255], in experiment [1], the IC50 was less than 100 nM. Further, in experiment [2], the EC50 is less than 1000 nM.
As to `CN1CCC(n2cc(-c3cc(F)cc(C4(NC(=O)c5ccccc5CNC(=O)C(=O)NCC#Cc5ncco5)CC4)c3)cn2)CC1` [Example 257], the IC50 in experiment [1] is less than 100 nM. The same molecule had a concentration for a half-maximal effect (EC50) in experiment [2] of less than 1000 nM.
In the same order, the values of `COc1cccnc1C#CCNC(=O)C(=O)NCc1ccccc1C(=O)NC1(c2cc(F)cc(-c3cn(C)nc3C)c2)CC1` [Example 258] are less than 100 nM and less than 1000 nM.
On to `Cc1nn(C)cc1-c1cc(F)cc(C2(NC(=O)c3ccccc3CNC(=O)C(=O)NCC#Cc3ncccc3Cl)CC2)c1` [Example 259], for which the IC50 in experiment [1] was less than 100 nM. For the same molecule, the concentration for a half-maximal effect (EC50) in experiment [2] is less than 1000 nM.
On to `Cc1cccnc1C#CCNC(=O)C(=O)NCc1ccccc1C(=O)NC1(c2cc(F)cc(-c3cn(C)nc3C)c2)CC1` [Example 260], for which the concentration for half-maximal inhibition (IC50) in experiment [1] was less than 100 nM. Moreover, the EC50 in experiment [2] is less than 1000 nM.
On the same counts, the results for `COc1cccnc1C#CCNC(=O)C(=O)NCc1ccccc1C(=O)NC1(c2cc(F)cc(-c3cnn(C4CC4)c3)c2)CC1` [Example 261] are less than 100 nM and less than 1000 nM.
In the same order, the values of `Cc1cccnc1C#CCNC(=O)C(=O)NCc1ccccc1C(=O)NC1(c2cc(F)cc(-c3cnn(C4CC4)c3)c2)CC1` [Example 262] are less than 100 nM and less than 1000 nM.
In the same order, the values of `O=C(NCC#Cc1ncccc1Cl)C(=O)NCc1ccccc1C(=O)NC1(c2cc(F)cc(-c3cnn(C4CC4)c3)c2)CC1` [Example 263] are less than 100 nM and less than 1000 nM.
As for `C[C@@H](C#Cc1ncccc1Cl)NC(=O)C(=O)NCc1ccccc1C(=O)NC1(c2cc(F)cc(-c3cnn(C4CC4)c3)c2)CC1` [Example 264], the IC50 in experiment [1] is less than 100 nM. For the same molecule, in experiment [2], the EC50 was less than 1000 nM.
`COc1cccnc1C#C[C@H](C)NC(=O)C(=O)NCc1ccccc1C(=O)NC1(c2cc(F)cc(-c3cnn(C4CC4)c3)c2)CC1` [Example 265]: the IC50 in experiment [1] was less than 100 nM. In experiment [2], this molecule displayed an EC50 of less than 1000 nM.
